Earlier results as cited in CN103893129A, “帕潘立酮缓释微球及其注射剂和该缓释微球的制备方法” (CHONGQING DAXIN PHARMACEUTICALS Co Ltd OF PKU INTERNATIONAL …, priority 2012, dated 2014).

Tested on: schizophrenia (精神分裂症)

SMILES: Cc1nc2n(c(=O)c1CCN1CCC(c3noc4cc(F)ccc34)CC1)CCCC2O (centres unmarked) [帕潘立酮, 6,7,8,9-四氢-3-(2-(4-(6-氟-1,2-苯并异唑-3-基)-1-哌啶基)乙基)-9-羟基-2-甲基-4H-吡啶并[2,1-a]嘧啶-4-酮]
- efficacy on positive and negative symptoms of schizophrenia (clinical): 对精神分裂症阳性症状和阴性症状均有疗效
- relapse rate of schizophrenia (patients): 可有效延迟精神分裂症的复发率
